Paper PMC3344384 (Chemistry & biology, 2011)

What was measured:
USP7 = USP7 (Homo sapiens, UniProt Q93009); experiment: K63-linked diubiquitin cleavage assay, USP7; settings: for IC50 for USP7, fold higher than that for USP1/UAF1: K63-linked diubiquitin substrate
USP1/UAF1 = USP1/UAF1 (Homo sapiens, UniProt O94782+Q8TAF3); experiment: reversibility of inhibition by rapid dilution; settings: incubation at 10 times IC50, 100-fold rapid dilution
USP1 alone = molecular target: T1, USP1 alone (Homo sapiens, UniProt O94782); experiment: Ub-Rho assay, USP1 alone; type: biochemical; settings: Ub-Rho substrate, absence of UAF1 subunit
T1 sequence (O94782 1-785): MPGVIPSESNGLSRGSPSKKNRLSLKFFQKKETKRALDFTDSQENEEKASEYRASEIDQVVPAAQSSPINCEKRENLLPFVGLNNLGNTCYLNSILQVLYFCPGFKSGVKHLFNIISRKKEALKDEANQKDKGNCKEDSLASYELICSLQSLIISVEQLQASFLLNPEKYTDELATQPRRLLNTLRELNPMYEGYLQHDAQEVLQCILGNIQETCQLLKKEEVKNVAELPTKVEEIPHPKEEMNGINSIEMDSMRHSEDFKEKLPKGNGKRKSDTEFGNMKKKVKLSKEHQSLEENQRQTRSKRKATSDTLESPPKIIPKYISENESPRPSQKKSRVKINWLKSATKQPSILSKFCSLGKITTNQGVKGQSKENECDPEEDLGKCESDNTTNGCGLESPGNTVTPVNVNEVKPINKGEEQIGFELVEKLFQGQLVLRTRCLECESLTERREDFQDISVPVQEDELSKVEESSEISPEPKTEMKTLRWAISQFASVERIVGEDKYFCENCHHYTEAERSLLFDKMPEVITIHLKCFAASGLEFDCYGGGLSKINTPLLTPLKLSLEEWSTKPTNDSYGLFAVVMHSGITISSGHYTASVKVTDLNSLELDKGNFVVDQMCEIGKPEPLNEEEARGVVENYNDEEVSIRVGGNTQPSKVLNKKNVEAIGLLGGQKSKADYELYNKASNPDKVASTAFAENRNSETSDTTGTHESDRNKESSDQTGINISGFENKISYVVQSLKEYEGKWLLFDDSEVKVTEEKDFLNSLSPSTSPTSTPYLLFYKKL

caspase-6 = molecular target: T2, caspase-6 (Homo sapiens, UniProt P55212); experiment: cysteine protease selectivity, caspase-6; type: biochemical
T2 sequence (P55212 24-179 limits assumed): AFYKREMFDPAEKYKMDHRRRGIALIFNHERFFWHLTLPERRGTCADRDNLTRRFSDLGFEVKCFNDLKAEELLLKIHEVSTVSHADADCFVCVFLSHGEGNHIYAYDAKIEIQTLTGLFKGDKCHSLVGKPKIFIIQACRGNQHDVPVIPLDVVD
T2 sequence (P55212 194-293 limits assumed): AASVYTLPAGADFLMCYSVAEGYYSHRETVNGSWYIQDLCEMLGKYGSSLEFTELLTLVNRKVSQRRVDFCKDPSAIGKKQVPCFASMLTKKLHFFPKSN

USP5 = molecular target: T3, USP5 (Homo sapiens, UniProt P45974); experiment: K63-linked diubiquitin cleavage assay, USP5; settings: K63-linked diubiquitin substrate; NI = no significant inhibition at 114 μM
T3 sequence (P45974 1-858): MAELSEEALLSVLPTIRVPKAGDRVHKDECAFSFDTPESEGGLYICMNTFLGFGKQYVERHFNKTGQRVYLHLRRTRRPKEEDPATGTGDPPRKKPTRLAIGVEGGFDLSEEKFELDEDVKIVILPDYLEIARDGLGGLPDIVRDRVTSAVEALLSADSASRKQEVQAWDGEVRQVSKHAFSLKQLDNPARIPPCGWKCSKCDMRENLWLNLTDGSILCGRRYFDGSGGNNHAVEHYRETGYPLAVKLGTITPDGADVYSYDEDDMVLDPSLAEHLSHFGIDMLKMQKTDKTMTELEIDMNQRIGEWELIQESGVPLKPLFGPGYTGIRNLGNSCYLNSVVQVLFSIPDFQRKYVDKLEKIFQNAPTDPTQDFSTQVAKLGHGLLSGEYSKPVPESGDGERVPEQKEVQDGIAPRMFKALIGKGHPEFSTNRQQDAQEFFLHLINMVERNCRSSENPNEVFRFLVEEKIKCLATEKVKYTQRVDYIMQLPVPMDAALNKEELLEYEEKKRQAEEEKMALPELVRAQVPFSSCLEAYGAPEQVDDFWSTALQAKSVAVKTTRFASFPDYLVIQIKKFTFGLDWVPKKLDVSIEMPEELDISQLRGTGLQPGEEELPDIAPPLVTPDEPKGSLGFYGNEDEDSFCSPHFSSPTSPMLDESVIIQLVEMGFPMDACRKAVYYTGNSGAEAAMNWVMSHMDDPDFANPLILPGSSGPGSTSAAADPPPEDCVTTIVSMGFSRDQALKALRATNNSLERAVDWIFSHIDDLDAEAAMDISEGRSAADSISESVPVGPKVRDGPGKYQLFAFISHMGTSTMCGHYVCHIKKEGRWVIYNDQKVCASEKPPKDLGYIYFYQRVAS

USP2 = molecular target: T4, USP2 (Homo sapiens, UniProt O75604); experiment: K63-linked diubiquitin cleavage assay, USP2; settings: for IC50 USP2: NI = no significant inhibition at 114 μM
T4 sequence (O75604 1-605): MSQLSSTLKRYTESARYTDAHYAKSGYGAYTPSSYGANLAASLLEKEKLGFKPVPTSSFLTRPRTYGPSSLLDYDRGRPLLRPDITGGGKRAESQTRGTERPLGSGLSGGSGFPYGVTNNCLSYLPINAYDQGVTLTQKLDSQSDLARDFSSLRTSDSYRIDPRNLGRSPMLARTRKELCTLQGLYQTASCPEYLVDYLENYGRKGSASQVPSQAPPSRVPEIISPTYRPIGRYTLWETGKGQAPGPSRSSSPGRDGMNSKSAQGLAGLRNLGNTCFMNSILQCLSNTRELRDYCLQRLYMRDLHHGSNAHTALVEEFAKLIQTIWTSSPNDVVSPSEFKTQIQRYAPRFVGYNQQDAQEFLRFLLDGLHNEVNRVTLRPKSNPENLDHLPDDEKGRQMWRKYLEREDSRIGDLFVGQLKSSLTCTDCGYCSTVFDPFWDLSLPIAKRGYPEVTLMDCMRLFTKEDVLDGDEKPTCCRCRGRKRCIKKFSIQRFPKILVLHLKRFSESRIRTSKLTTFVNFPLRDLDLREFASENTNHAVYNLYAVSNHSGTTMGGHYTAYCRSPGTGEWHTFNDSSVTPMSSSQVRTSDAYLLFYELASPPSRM

[1] = K63-linked diubiquitin substrate

Chain of USP1/UAF1 (Q8TAF3 whole entry, one chain of several): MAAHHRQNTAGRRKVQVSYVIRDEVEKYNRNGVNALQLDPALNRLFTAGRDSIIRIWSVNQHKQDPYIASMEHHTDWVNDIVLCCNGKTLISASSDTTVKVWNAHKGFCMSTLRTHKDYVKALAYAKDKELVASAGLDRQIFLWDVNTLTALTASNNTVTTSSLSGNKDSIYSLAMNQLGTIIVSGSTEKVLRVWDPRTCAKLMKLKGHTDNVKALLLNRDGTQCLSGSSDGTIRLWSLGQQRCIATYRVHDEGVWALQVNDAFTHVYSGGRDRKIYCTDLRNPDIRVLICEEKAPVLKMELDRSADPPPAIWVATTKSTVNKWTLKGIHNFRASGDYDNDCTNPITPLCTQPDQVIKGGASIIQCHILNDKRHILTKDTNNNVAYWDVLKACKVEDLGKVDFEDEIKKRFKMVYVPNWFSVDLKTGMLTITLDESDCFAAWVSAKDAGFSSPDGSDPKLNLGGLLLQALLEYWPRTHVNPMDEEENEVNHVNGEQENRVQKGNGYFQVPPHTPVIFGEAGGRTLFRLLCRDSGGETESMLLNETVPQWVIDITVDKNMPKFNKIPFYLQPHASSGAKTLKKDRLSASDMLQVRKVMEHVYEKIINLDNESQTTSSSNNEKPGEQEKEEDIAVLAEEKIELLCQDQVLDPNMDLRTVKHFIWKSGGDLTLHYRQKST
Chain of USP7 (Q93009 whole entry): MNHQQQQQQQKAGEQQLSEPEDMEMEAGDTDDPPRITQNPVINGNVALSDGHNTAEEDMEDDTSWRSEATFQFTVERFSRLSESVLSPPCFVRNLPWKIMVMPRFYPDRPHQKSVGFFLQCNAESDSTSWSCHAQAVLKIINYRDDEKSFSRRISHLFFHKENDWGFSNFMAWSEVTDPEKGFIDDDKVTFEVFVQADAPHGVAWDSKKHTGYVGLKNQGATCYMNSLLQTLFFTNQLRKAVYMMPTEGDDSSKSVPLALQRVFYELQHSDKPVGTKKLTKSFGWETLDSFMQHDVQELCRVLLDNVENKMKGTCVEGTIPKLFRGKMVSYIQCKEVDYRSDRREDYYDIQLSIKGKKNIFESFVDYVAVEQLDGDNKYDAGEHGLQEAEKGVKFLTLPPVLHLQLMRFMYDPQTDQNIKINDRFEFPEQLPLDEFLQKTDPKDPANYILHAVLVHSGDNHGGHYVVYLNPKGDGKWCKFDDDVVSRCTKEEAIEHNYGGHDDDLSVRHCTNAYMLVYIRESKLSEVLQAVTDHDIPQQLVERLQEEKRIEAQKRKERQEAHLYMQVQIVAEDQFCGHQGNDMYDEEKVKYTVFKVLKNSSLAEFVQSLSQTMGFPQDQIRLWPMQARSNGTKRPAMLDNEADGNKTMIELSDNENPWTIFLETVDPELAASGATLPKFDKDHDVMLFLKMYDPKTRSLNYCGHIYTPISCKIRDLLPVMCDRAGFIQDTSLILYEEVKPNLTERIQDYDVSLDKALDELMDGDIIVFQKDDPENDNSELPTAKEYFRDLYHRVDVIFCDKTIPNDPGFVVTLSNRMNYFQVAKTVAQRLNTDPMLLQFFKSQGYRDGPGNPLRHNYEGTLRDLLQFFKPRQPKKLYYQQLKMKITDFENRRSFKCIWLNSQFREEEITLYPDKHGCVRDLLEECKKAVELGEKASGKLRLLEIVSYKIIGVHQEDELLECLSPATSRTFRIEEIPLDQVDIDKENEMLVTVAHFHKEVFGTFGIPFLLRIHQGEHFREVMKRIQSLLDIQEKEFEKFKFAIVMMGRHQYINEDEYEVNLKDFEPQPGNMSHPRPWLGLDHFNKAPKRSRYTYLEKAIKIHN

Row | IC50 (USP7) [µM] | reversibility of inhibition (USP1/UAF1) | inhibition of USP1 alone (USP1 alone) | IC50 (caspase-6) [µM] | IC50 USP5 (USP5) | IC50 USP2 (USP2; [1]) | SMILES | IC50 for USP7, fold higher than that for USP1/UAF1 (USP7) [fold] | IC50 (USP2) [µM] | IC50 for USP2, fold higher than that for USP1/UAF1 (USP2; [1])
1 | 13 ± 1 | largely reversible inhibitors | low level of inhibition | > 250 | no inhibition | no inhibition | OCCN1CCN(CCC=C2c3ccccc3Sc3ccc(C(F)(F)F)cc32)CC1 [Flupenthixol, flupenthixol] | – | – | –
2 | 47 ± 1 | largely reversible inhibitors | low level of inhibition | > 250 | No inhibition | No inhibition | O=c1[nH]c2ccccc2n1C1CCN(CCCC(c2ccc(F)cc2)c2ccc(F)cc2)CC1 [Pimozide, pimozide] | 24 | – | –
3 | 9 ± 1 | largely reversible inhibitors | low level of inhibition | > 250 | no inhibition | no inhibition | CN1CCN(CCCN2c3ccccc3Sc3ccc(C(F)(F)F)cc32)CC1 [Trifluoperazine, trifluoperazine] | – | – | –

Row | SMILES | IC50 (USP7) [µM] | reversibility of inhibition (USP1/UAF1) | inhibition of USP1 alone (USP1 alone) | IC50 (caspase-6) [µM] | IC50 USP5 (USP5) | IC50 USP2 (USP2; [1]) | IC50 for USP7, fold higher than that for USP1/UAF1 (USP7) [fold] | IC50 (USP2) [µM] | IC50 for USP2, fold higher than that for USP1/UAF1 (USP2; [1])
4 | CC(C)(Sc1ccc(CCN(CCCCC2CCCCC2)C(=O)NC2CCCCC2)cc1)C(=O)O [GW7647] | 44 ± 2 | largely reversible inhibitors | low level of inhibition | 21 | did not inhibit | – | 9 | > 114 | more than 23 fold
